Measured values from paper PMC7067850, “Identification of highly potent and selective inhibitor, TIPTP, of the p22phox-Rubicon axis as a therapeutic agent for rheumatoid arthritis” (Scientific Reports, 2020).

Assays:
[1] = test system: human monocytes; experiment: LPS-primed, ATP-activated human monocytes (co-IP, ELISA, immunoblot); format: cell-based
Experimental: The mouse macrophage cell line RAW264.7 (ATCC TIB-71; American Type Culture Collection) and HEK293T (ATCC-11268) cells were maintained in DMEM (Invitrogen) containing 10% FBS (Invitrogen), sodium pyruvate, nonessential amino acids, penicillin G (100 IU/ml), and streptomycin (100 μg/ml). Transient transfections were performed with Lipofectamine 3000 (Invitrogen), or calcium phosphate (Clontech), according to the manufacturer’s instructions. Raw264.7 stable cell lines were generated using a standard selection protocol with 2 μg/ml of puromycin. Mouse primary bone marrow derived-macrophages (BMDMs) were isolated from C57BL/6 mice and cultured in DMEM for 3–5 days in the presence of 25 ng/ml recombinant macrophage colony stimulating factor (R&D Systems, 416-ML, Minneapolis, MN, USA), as described previously. Human adherent monocytes were prepared from PBMCs donated by healthy subjects, as described previously. […]
Cell culture supernatants, mice sera and synovial fluid were analyzed for cytokine content using the BD OptEIA ELISA set (BD Pharmingen) for the detection of TNF-α, IL-6, IL-1β, and IL-18. […]
Figure 6 TIPTP is active for cells from healthy humans or patients with RA. […] (b) Culture supernatants were harvested and analyzed for cytokines by ELISA (left). […] (e) Culture supernatants were harvested and analyzed for cytokines by ELISA (left). […]

[2] = test system: collagen antibody-induced arthritis; experiment: Collagen antibody-induced arthritis (CAIA) mouse model, mice transduced with Ad-Rubicon; format: in vivo
Experimental: Collagen antibody-induced arthritis mouse model was induced as previously described. Mice received a single‐dose intravenous injection of anti-type II collagen antibody cocktail (8 mg/mouse) (Arthrogen‐CIA Arthritogenic Monoclonal Antibody, no. 53010; Chondrex) on day −3 and an intraperitoneal injection of 100 μg of lipopolysaccharide on day 0 and were then monitored for the indicated times. Mice were sacrificed under anesthesia for the indicated times and knee joints were isolated. All animal-related procedures were reviewed and approved by the Institutional Animal Care and Use Committee of the Hanyang University (protocol 2017–0219). All animal experiments were performed in accordance with Korean Food and Drug Administration guidelines. […]
Figure 5 TIPTP protects Rubicon-expressed CAIA mice mortality. […] (a) The survival of CAIA mice was monitored for 15 days and mortality was measured for n = 10 mice per group. […] (b) Clinical arthritis score and swelling of paws, or (c) representative H&E staining of the ankle joints of each group were determined at 9 days of CAIA (left). […] Statistical significance was determined by two-way analysis of variance (ANOVA) with Tukey’s posttest; **P < 0.01 compared with Ad-Vector+Vehicle (a). […]
Arthritis mice were evaluated for disease progression three times a week as follows ^1,2. […]

C[C@@H](Oc1cccc(-n2cc3c(n2)CCCC3)c1)C(=O)Nc1nnc(C(F)(F)F)s1 [TIPTP, (R)-2-(3-(4,5,6,7-tetrahydro-2H-indazol-2-yl)phenoxy)-N-(5-(trifluoromethyl)-1,3,4-thiadiazol-2-yl)propanamide]
IL-1β and IL-18 cytokines, caspase-1 activation, IL-1β and IL-18 maturation ([1]; human blood-derived monocytes, LPS/ATP, dose-dependent (Fig. 6b)): inhibited | p22phox–Rubicon interaction ([1]; normal human monocytes, LPS/ATP, 0.01, 0.1, 1 μM, dose-dependent (Fig. 6a)): inhibited | survival rate ([2]; CAIA mice transduced with Ad-Rubicon, TIPTP every 2 days intraperitoneal, monitored 15 days (Fig. 5a)): 90% | arthritic clinical scores, paw swelling, and histopathological evaluation vs vehicle ([2]; Rubicon-expressing and vector CAIA mice (Fig. 5b,c)): markedly decreased
